The subject of test [1] is Escherichia coli. The test can be described thus: Antibacterial activity against Escherichia coli JM019 assessed as growth inhibition. Type of test: functional.
Test [2] addresses T1, D-alanine--D-alanine ligase (Helicobacter pylori (strain HPAG1), UniProt Q1CTD3).
T1 sequence (Q1CTD3 whole entry): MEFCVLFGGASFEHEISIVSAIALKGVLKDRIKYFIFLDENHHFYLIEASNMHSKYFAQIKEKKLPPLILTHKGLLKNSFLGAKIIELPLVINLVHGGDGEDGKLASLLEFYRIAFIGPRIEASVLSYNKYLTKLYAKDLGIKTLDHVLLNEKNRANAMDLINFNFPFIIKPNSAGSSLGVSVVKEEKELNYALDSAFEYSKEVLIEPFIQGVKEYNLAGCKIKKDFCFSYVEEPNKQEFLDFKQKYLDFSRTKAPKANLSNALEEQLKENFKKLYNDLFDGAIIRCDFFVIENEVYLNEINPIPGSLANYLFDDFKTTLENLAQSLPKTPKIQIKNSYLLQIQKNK
The test can be described thus: Binding affinity to Helicobacter pylori Ddl by surface plasmon resonance biosensor technology. A general note: SPR reads the build-up and loss of mass on a sensor chip optically.

Test [3] has as its target T1, D-alanine--D-alanine ligase. The test can be described thus: Competitive inhibition of Helicobacter pylori Ddl using ATP as substrate.
Test [4] deals with Helicobacter pylori. The test can be described thus: Antibacterial activity against Helicobacter pylori SS1 assessed as growth inhibition. The class given is functional.
Test [5] deals with Helicobacter pylori. Briefly: Antibacterial activity against Helicobacter pylori 43504 assessed as growth inhibition. The class given is functional.
Test [6] has as its system Escherichia coli. The test can be described thus: Antibacterial activity against Escherichia coli 25922 assessed as growth inhibition. Type of test: functional.
Test [7] deals with D-alanine--D-alanine ligase B (Escherichia coli K-12, UniProt P07862). The test can be described thus: Competitive inhibition of Escherichia coli DdlB using ATP as substrate.

Converted amounts (≈) assume the structure as drawn.

Experimental findings from ChEMBL document CHEMBL3045659, “Molecular docking studies on analogues of quercetin with d-alanine:d-alanine ligase of Helicobacter pylori” (Med Chem Res, 2013) are described below.

As a reminder, the MIC is the lowest concentration that inhibits growth of the organism. The Kd is a measure of binding affinity in units of concentration. Lower therefore signals higher affinity. By IC50 is commonly meant the concentration that gives 50% inhibition. High values mean weaker potency in that assay, low ones greater potency in that assay. The term Ki denotes the equilibrium dissociation constant of an inhibitor or competing ligand from its target. Regarding `O=c1c(O)c(-c2ccc(O)c(O)c2)oc2cc(O)cc(O)c12` [QUERCETIN], the MIC was 300 µg/mL (≈ 993 µM) with Escherichia coli [1], 200 µg/mL (≈ 662 µM) with Helicobacter pylori [4], 100 µg/mL (≈ 331 µM) in the test with Helicobacter pylori [5] and 300 µg/mL (≈ 993 µM) with Escherichia coli [6]. Also, in test [2], binding was characterised by a dissociation constant (Kd) of 12.9 µM. Besides, the 50% inhibitory concentration (IC50) was determined as 48.5 µM in test [3] and 19.9 µM in test [7]. This molecule also registered a Ki in test [3] of 4.3 µM.

`O=c1cc(-c2ccc(O)cc2)oc2cc(O)cc(O)c12` [APIGENIN]: the minimum inhibitory concentration (MIC) in the test with Escherichia coli [1] was 200 µg/mL (≈ 740 µM); in the test with Helicobacter pylori [4], 25 µg/mL (≈ 92.5 µM); in the test with Helicobacter pylori [5] it was 25 µg/mL (≈ 92.5 µM); in the test with Escherichia coli [6] it was greater than 200 µg/mL. In addition, the half-inhibitory concentration (IC50) in test [3] came to 133 µM; in test [7] it was 163 µM. The molecule further came in with an inhibition constant Ki in test [3] of 31 µM.
